The record followed here is patent US20260008862A1, “Bispecific Anti-BCMA x Anti-CD3 Antibodies and Uses Thereof” (Regeneron Pharmaceuticals, Inc., priority 2018, published 2026).

Data set [1] concerns Jurkat/NFATLuc.3C7 cells + NCI-H929 cells. The data set can be described thus: Jurkat/NFATLuc reporter bioassay with NCI-H929 cells. It counts as cell-based. The note with it: highest RLU / lowest RLU. Here is the method: (§1) Activity of the anti-BCMA×anti-CD3 bispecific antibodies were assessed in a Jurkat/NFATLuc reporter bioassay utilizing several cell lines with varying levels of BCMA surface expression. The Jurkat cells were engineered to express an NFAT-luciferase reporter (Jurkat/NFATLuc.3C7), and 50,000 Jurkat reporter cells were combined with 50,000 BCMA positive (Daudi, MM1-S, NCI-H929, OPM-2, RPMI-8226, MOLP-8, or Raji) or BCMA negative (HEK293) cells in Thermo Nunclon delta 96 well white microwell plates (Thermo Scientific, Cat #136102) in 50 ul of assay media (RPMI media with 10% FBS and 1% P/S/G). Three-fold serial dilutions of the BCMA×CD3 bispecific antibodies (mAb25441 D or mAb25442D), or a bivalent anti-BCMA antibody (mAb21581) were immediately added in 50 μL of assay buffer. The plates were gently agitated and incubated in a 37° C., 5% CO2 incubator for 4-6 hours. NFAT-Luciferase activity was determined using Promega One-Glo (Cat #E6130) and a Perkin Elmer Envision plate reader. RLU were plotted in GraphPad Prism using a four-parameter logistic equation over a 12-point response curve to calculate EC50 values. […] The signal to noise (S:N) is determined by taking the ratio of the highest RLU on the curve to the lowest.

Data set [2] deals with Jurkat/NFATLuc.3C7 cells + OPM-2 cells. In words: Jurkat/NFATLuc reporter bioassay with OPM-2 cells. The data set is classed as cell-based. The note with it: highest RLU / lowest RLU. Here is the method: as §1
Data set [3] deals with primary human plasma cells (CD138+). The data set can be described thus: Autologous T cell-mediated killing of human plasma cells. It counts as cell-based. Here is the method: The specific killing of enriched CD138^+ human or cynomolgus monkey plasma cells by unstimulated autologous T cells was assessed by flow cytometry. Human or cynomolgus bone marrow aspirates and blood were provided within 24 hours of harvest. CD138^+ plasma cells were enriched from bone marrow by positive selection using the EasySep™ Human CD138^+ Positive Selection kit according to the manufacturer's instructions. PBMC from whole blood were isolated by density separation. PBMC were labeled with 1 μM of Vybrant™ CFDA-SE fluorescent tracking dye. […] At the end of the culture, surviving CD138^+ plasma cells were analyzed by flow cytometry, utilizing fixable LIVE/DEAD dye and plasma cell specific cell surface markers. Percent viability was normalized to control condition (plasma cells in the presence of PBMC only). T cell activation was assessed by flow cytometry. Activation is reported as the percentage of CD2^+/CD4^+ or CD2^+/CD8^+/CD16^− T cells expressing CD25. Percent T cell activation was normalized to control condition (plasma cells in the presence of PBMC only).

For another data set, the system named is MC38/BCMA tumors. In words: Syngenic MC38/BCMA tumor model, combination with anti-PD-1 (Example 20). The data set is classed as in vivo. The note with it: REGN5458 0.04 or 0.24 mg/kg plus anti-mouse PD-1 (Clone RPM1-14) 4 mg/kg. Here is the method: Implantation and measurement of syngenic tumors: C57BL/6 mice that express human CD3deg in place of murine CD3deg (CD3-humanized mice) were subcutaneously implanted with 1×10^6 MC38 colon carcinoma cells that have been engineered to express full-length human BCMA (MC38/BCMA).
The mice were administered these Abs twice more on days 7 and 11 for a total of three doses, and tumor growth was assessed throughout the experiment.
Calculation of syngenic tumor growth and inhibition: In order to determine tumor volume by external caliper, the greatest longitudinal diameter (length in mm) and the greatest transverse diameter (width in mm) were determined. Tumor volumes based on caliper measurements were calculated by the formula: Volume (mm^3)=(length×width^2)/2.

The next data set deals with monkey BCMA-MFC. In words: SPR (Biacore 4000) binding kinetics to monkey BCMA-MFC. The note with it: 25° C. Here is the method:
The CM5 Biacore sensor surface was derivatized by amine coupling with a monoclonal mouse anti-human Fc antibody (GE, #BR-11008-39) to capture purified anti-BCMA mAbs and anti-BCMA×anti-CD3 bispecific mAbs. All Biacore binding studies were performed in a buffer composed of 0.01 M HEPES pH 7.4, 0.15M NaCl, 3 mM EDTA, 0.05% v/v Surfactant P20 (HBS-ET running buffer). […] Antigen samples were then injected over the anti-BCMA and anti-BCMA×anti-CD3 bispecific mAbs captured surfaces at a flow rate of 30 μL/minute. Antibody-reagent association was monitored for 5 minutes while dissociation in HBS-ET running buffer was monitored for 10 minutes. All of the binding kinetics experiments were performed at 25° C. Kinetic association (ka) and dissociation (kd) rate constants were determined by fitting the real-time sensorgrams to a 1:1 binding model using Scrubber 2.0c curve fitting software. Binding dissociation equilibrium constants (KD) and dissociative half-lives (t½) were calculated from the kinetic rate constants as: […]
(SPR reads the build-up and loss of mass on a sensor chip optically.)

Where two headings read alike, the source gives them in different places.

Chain of monkey BCMA-MFC (as listed by the source): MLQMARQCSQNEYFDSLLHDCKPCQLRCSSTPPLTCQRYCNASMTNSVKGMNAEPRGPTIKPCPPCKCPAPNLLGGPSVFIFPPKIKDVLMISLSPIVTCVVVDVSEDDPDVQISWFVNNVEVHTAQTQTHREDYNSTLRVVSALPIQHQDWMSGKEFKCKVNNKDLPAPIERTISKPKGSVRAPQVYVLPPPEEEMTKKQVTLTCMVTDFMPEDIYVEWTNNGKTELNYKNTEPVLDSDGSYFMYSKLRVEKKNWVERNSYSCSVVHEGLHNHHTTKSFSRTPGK

In the case of “REGN5458: anti-BCMA×anti-CD3 bispecific antibody: BCMA HCVR of mAb21581 (SEQ 66), CD3 HCVR of mAb7221G (SEQ 90), common LCVR SEQ 82”, the figures for the “S:N” value in data set [1] and in data set [2] were 39 and 8, respectively. For the same substance, the “Cytotoxic Kill Max % Cytotoxicity” value stood at 91% in data set [3] (Human Donor 1 plasma cells, autologous primary human T cells, E:T 10:1, 72 hours) and 89% in data set [3] (Human Donor 2 plasma cells, autologous primary human T cells, E:T 10:1, 72 hours). Also, the EC50 was 0.214 nM in data set [3] (Human Donor 1 plasma cells, autologous primary human T cells, read-out: T Cell Activation (% CD25 Upregulation) CD8+ T cells EC50); 0.191 nM in data set [3] (Human Donor 2 plasma cells, autologous primary human T cells, E:T 10:1, 72 hours, read-out: Cytotoxic Kill EC50); 0.214 nM in data set [3] (human donor 1, CD25, read-out: CD8+ T cell activation EC50); 0.0428 nM in data set [3] (human donor 1, read-out: cytotoxicity EC50); 0.86 nM in data set [3] (human donor 2, CD25, read-out: CD8+ T cell activation EC50); 0.191 nM in data set [3] (human donor 2, read-out: cytotoxicity EC50). Besides, the “T Cell Activation (% CD25 Upregulation) CD8+ T cells % Activation” value in data set [3] (Human Donor 2 plasma cells, autologous primary human T cells, maximum) was 36%. The maximum percent cytotoxicity in data set [3] (human donor 1) is on record as 91%; in data set [3] (human donor 2), 89%. Further, in data set [3] (human donor 2), the “maximum percent CD8+ T cell activation” value was determined as 36%. Also, the “anti-tumor efficacy of the combination (in words)” value in the data set with MC38/BCMA tumors is reported as “superior anti-tumor efficacy”.
In the case of “REGN5459: anti-BCMA×anti-CD3 bispecific antibody: BCMA HCVR of mAb21581 (SEQ 66), CD3 HCVR of mAb7221G20 (SEQ 98), common LCVR SEQ 82”, in the data set with monkey BCMA-MFC, the “ka” value was found to be 482000 M⁻¹ s⁻¹ and the “kd” value came out at 7.15e-05 s⁻¹.
